According to patent publication US20220151935A1, “USE OF AMINO ACID BASED NUTRIENTS AND PHARMACEUTICAL COMPOSITION CONTAINING THE SAME” (priority 2018, published 2022):
Marks after values point to notes of the source that are not given here.

Tested on: human liver cancer cells (HepG2)
Assay: Tumor weight and tumor inhibition in nude mice bearing HepG2
Format: in vivo
Conditions: Table 6; avg tumor volume 153 mm^3; ≤120 μl/mouse every 3 days x3; 5th day after last dose
Experimental: One of the core characteristics of tumors is heterogeneity. […] The corresponding negative control was normal saline.
(§1) They were injected intraperitoneally and intratumorally.
The negative control group was given normal saline. The compositions of the study drug are as shown in the table below: 4 types and concentrations of amino acid based nutrient single drugs (X % amino acid based nutrients), 18 types and concentrations of ineffective absorption drugs (Y % ineffective absorption drugs), 24 compositions comprising various types and concentrations of amino acid based nutrients and ineffectively absorption drugs (X % amino acid based nutrients/Y % ineffectively absorption drugs).
The negative control was normal saline. The compositions of 16 study drugs, as shown in the table below, comprise: a 5-fluorouracil single drug of 4 varying concentrations (X % 5-fluorouracil), and an amino acid based nutrient with 5 varying concentrations (Y % amino acid based nutrient), 7 compositions consisting of 5-fluorouracil of varying concentrations and an amino acid based nutrient of varying concentrations (X % 5-fluorouracil/Y % amino acid based nutrient). […] The dose at each time was: 5-fluorouracil 50 mg/kg, glutathione ≤1 g/kg, and an injection volume was ≤150 μl/mouse.
The negative control was normal saline, the positive control was 1% 5-fluorouracil, and the study drug was 1% methylene blue/10% amino acid based nutrient composition (the type of the amino acid based nutrient is variable). The amino acid based nutrients in the compositions used in study groups 1-13 were: arginine, glycine, cysteine hydrochloride, valine, threonine, proline, histidine hydrochloride, phenylalanine, lysine, leucine, alanine, glutathione, serine, and the study drug used in the study group 14 was 1% methylene blue/5% arginine/5% glycine.
With `CC(=O)O` [3.5% acetic acid, acetic acid] the “Intratumoral injection Tumor inhibition rate” value was 64%, the “Intratumoral injection Tumor weight” value was 0.84 ± 0.23 g and the “Tumor inhibition rate of intraperitoneal injection” value was 6%. In the case of `CC/C=C\C/C=C\C/C=C\C/C=C\C/C=C\C/C=C\CCC(=O)O` [5% DHA, Docosahexaenoic acid (DHA)], the “Intratumoral injection Tumor inhibition rate” value is reported as 27%, the “Intratumoral injection Tumor weight” value is reported as 1.69 ± 0.33 g and the “Tumor inhibition rate of intraperitoneal injection” value is reported as 4%. With `O=c1[nH]cc(F)c(=O)[nH]1` [1% 5-fluorouracil, 5-fluorouracil] the “Intratumoral injection Tumor inhibition rate” value was 66%, the “Intratumoral injection Tumor weight” value was 0.78 ± 0.21 g and the “Tumor inhibition rate of intraperitoneal injection” value was 59%. For `CN(C)c1ccc2nc3ccc(=[N+](C)C)cc-3sc2c1` [0.7% methylene blue, Methylene blue], the “Intratumoral injection Tumor inhibition rate” value was 13%, the “Intratumoral injection Tumor weight” value was 2.02 ± 0.31 g and the “Tumor inhibition rate of intraperitoneal injection” value was 2%.

Same assay, conditions: Table 8; avg tumor volume 175 mm^3; ≤150 μl/mouse every 3 days x3; 5th day after last dose
With `NCC(=O)O` [20% glycine, Glycine] the “Intratumoral injection Tumor inhibition rate” value was 54%, the “Intratumoral injection Tumor weight” value was 1.17 ± 0.28 g and the “Tumor inhibition rate of intraperitoneal injection” value was 2%. For `O=c1[nH]cc(F)c(=O)[nH]1` [1% 5-fluorouracil, 5-fluorouracil], the “Intratumoral injection Tumor inhibition rate” value was 67%, the “Intratumoral injection Tumor weight” value was 0.84 ± 0.25 g and the “Tumor inhibition rate of intraperitoneal injection” value was 58%.

Same assay, conditions: Table 11; avg tumor volume 164 mm^3; intratumoral every 3 days x3, ≤150 μl; fifth day after last dose
In the case of `Cl` [1% hydrochloric acid, hydrochloric acid], the Tumor inhibition rate is reported as “(68%)”. In the case of `N=C(N)NCCC[C@H](N)C(=O)O` [10% arginine, L-arginine], the Tumor inhibition rate is reported as “(43%)”. With `O=C1OC2(c3cc(I)c(O)c(I)c3Oc3c2cc(I)c(O)c3I)c2c(Cl)c(Cl)c(Cl)c(Cl)c21` [5% Bengal Red, Bengal Red] the Tumor inhibition rate was “(46%)”. With `Cl` [0.25% hydrochloric acid, hydrochloric acid] the Tumor inhibition rate was “(31%)”. For `CC(=O)O` [1% acetic acid, acetic acid], the Tumor inhibition rate was “(26%)”. In the case of `Cl` [2% hydrochloric acid, hydrochloric acid], the Tumor inhibition rate is reported as “(83%)”. For `CN(C)c1ccc2nc3ccc(=[N+](C)C)cc-3sc2c1` [0.35% methylene blue, Methylene blue], the Tumor inhibition rate was “(18%)”. With `Cl` [0.5% hydrochloric acid, hydrochloric acid] the Tumor inhibition rate was “(53%)”. With `CC(=O)O` [20% acetic acid, acetic acid] the Tumor inhibition rate was “(92%)**”. In the case of `CC/C=C\C/C=C\C/C=C\C/C=C\C/C=C\C/C=C\CCC(=O)O` [5% DHA, Docosahexaenoic acid (DHA)], the Tumor inhibition rate is reported as “(28%)”. For `N[C@@H](CCC(=O)N[C@@H](CS)C(=O)NCC(=O)O)C(=O)O` [2.5% glutathione, Reduced glutathione], the Tumor inhibition rate was “(12%)*”. In the case of `N[C@@H](CCC(=O)N[C@@H](CS)C(=O)NCC(=O)O)C(=O)O` [5% glutathione, Reduced glutathione], the Tumor inhibition rate is reported as “(31%)”. With `O=C1OC2(c3cc(I)c(O)c(I)c3Oc3c2cc(I)c(O)c3I)c2c(Cl)c(Cl)c(Cl)c(Cl)c21` [10% Bengal Red, Bengal Red] the Tumor inhibition rate was “(63%)”. For `CC(=O)O` [2% acetic acid, acetic acid], the Tumor inhibition rate was “(46%)”. With `CC/C=C\C/C=C\C/C=C\C/C=C\C/C=C\C/C=C\CCC(=O)O` [3% DHA, Docosahexaenoic acid (DHA)] the Tumor inhibition rate was “(21%)”. With `CN(C)c1ccc2nc3ccc(=[N+](C)C)cc-3sc2c1` [0.25% methylene blue, Methylene blue] the Tumor inhibition rate was “(11%)”.

Same assay, conditions: Table 16; avg tumor volume 169 mm^3; intratumoral every 3 days x3, ≤150 μl/mouse; 5th day
For `N[C@@H](CCC(=O)N[C@@H](CS)C(=O)NCC(=O)O)C(=O)O` [2.5% glutathione, Reduced glutathione], the Tumor inhibition rate was “(12%)”. In the case of `O=c1[nH]cc(F)c(=O)[nH]1` [1.5% 5-fluorouracil, 5-fluorouracil], the Tumor inhibition rate is reported as “(69%)”. For `O=c1[nH]cc(F)c(=O)[nH]1` [1% 5-fluorouracil, 5-fluorouracil], the Tumor inhibition rate was “(66%)”. In the case of `N[C@@H](CCC(=O)N[C@@H](CS)C(=O)NCC(=O)O)C(=O)O` [5% glutathione, Reduced glutathione], the Tumor inhibition rate is reported as “(32%)”. For `O=c1[nH]cc(F)c(=O)[nH]1` [0.75% 5-fluorouracil, 5-fluorouracil], the Tumor inhibition rate was “(63%)”. With `O=c1[nH]cc(F)c(=O)[nH]1` [0.5% 5-fluorouracil, 5-fluorouracil] the Tumor inhibition rate was “(59%)*”.

Same assay, conditions: Table 18; avg tumor volume 186 mm^3; intratumoral every 3 days x3, <150 μl; fifth day
In the case of `O=c1[nH]cc(F)c(=O)[nH]1` [1% 5-fluorouracil, 5-fluorouracil], the “Y(%) tumor inhibition rate” value is reported as 61%.

Same assay, conditions: Table 19; avg tumor volume 172 mm^3; intratumoral every 3 days x3, <150 μl; fifth day
With `O=c1[nH]cc(F)c(=O)[nH]1` [1% 5-fluorouracil, 5-fluorouracil] the “Y(%) tumor inhibition rate” value was 63%.

Tested on: pancreatic cancer cells PANC-1
Assay: Tumor inhibition in nude mice bearing pancreatic cancer cells PANC-1
Format: in vivo
Conditions: Table 3; avg tumor volume 105 mm^3; 100 μl/mouse every 3 days x3; next day after last dose
Experimental: as §1
After anatomy, the tumor weight was measured and the tumor inhibition rate was calculated.
With `NCCCC[C@H](N)C(=O)O` [20% lysine, L-lysine] the “Tumor inhibition rate of intraperitoneal injection” value was 53% and the “Tumor inhibition rate of intratumoral injection” value was 1%. In the case of `NCC(=O)O` [20% glycine, Glycine], the “Tumor inhibition rate of intraperitoneal injection” value is reported as 52% and the “Tumor inhibition rate of intratumoral injection” value is reported as 4%. With `O=c1[nH]cc(F)c(=O)[nH]1` [1% 5-fluorouracil, 5-fluorouracil] the “Tumor inhibition rate of intraperitoneal injection” value was 63% and the “Tumor inhibition rate of intratumoral injection” value was 59%.

Same assay, conditions: Table 4; avg tumor volume 136 mm^3; intratumoral every 3 days x3, ≤150 μl; next day
For `N=C(N)NCCC[C@H](N)C(=O)O` [10% arginine, L-arginine], the Tumor inhibition rate was 43%. In the case of `N[C@@H](CCC(=O)N[C@@H](CS)C(=O)NCC(=O)O)C(=O)O` [7.5% glutathione, Reduced glutathione], the Tumor inhibition rate is reported as 45%. Compound `N=C(N)NCCC[C@H](N)C(=O)O` [5% arginine, L-arginine] has a Tumor inhibition rate of 16%. With `N=C(N)NCCC[C@H](N)C(=O)O` [7.5% arginine, L-arginine] the Tumor inhibition rate was 21%. `N[C@@H](CCC(=O)N[C@@H](CS)C(=O)NCC(=O)O)C(=O)O` [3% glutathione, Reduced glutathione] gave a Tumor inhibition rate of 12%. In the case of `N=C(N)NCCC[C@H](N)C(=O)O` [3% arginine, L-arginine], the Tumor inhibition rate is reported as 19%. In the case of `N[C@@H](CCC(=O)N[C@@H](CS)C(=O)NCC(=O)O)C(=O)O` [1% glutathione, Reduced glutathione], the Tumor inhibition rate is reported as 11%. Compound `N[C@@H](CCC(=O)N[C@@H](CS)C(=O)NCC(=O)O)C(=O)O` [5% glutathione, Reduced glutathione] has a Tumor inhibition rate of 32%. `N[C@@H](CCC(=O)N[C@@H](CS)C(=O)NCC(=O)O)C(=O)O` [12.5% glutathione, Reduced glutathione] gave a Tumor inhibition rate of 66%. In the case of `N=C(N)NCCC[C@H](N)C(=O)O` [1% arginine, L-arginine], the Tumor inhibition rate is reported as 17%. With `N=C(N)NCCC[C@H](N)C(=O)O` [2% arginine, L-arginine] the Tumor inhibition rate was 15%. For `N[C@@H](CCC(=O)N[C@@H](CS)C(=O)NCC(=O)O)C(=O)O` [2% glutathione, Reduced glutathione], the Tumor inhibition rate was 13%.

Same assay, conditions: Table 4; avg tumor volume 136 mm^3; intratumoral every 3 days x3, ≤150 μl; next day; hydrochloride
Compound `Cl.N[C@@H](CCC(=O)O)C(=O)O` [2% glutamic hydrochloride, L-glutamic hydrochloride] has a Tumor inhibition rate of 49%. `Cl.N[C@@H](CCC(=O)O)C(=O)O` [1% glutamic hydrochloride, L-glutamic hydrochloride] gave a Tumor inhibition rate of 18%. For `Cl.N[C@@H](CCC(=O)O)C(=O)O` [5% glutamic hydrochloride, L-glutamic hydrochloride], the Tumor inhibition rate was 76%. In the case of `Cl.N[C@@H](CCC(=O)O)C(=O)O` [0.5% glutamic hydrochloride, L-glutamic hydrochloride], the Tumor inhibition rate is reported as 11%. Compound `Cl.N[C@@H](CCC(=O)O)C(=O)O` [0.15% glutamic hydrochloride, L-glutamic hydrochloride] has a Tumor inhibition rate of 16%. `Cl.N[C@@H](CCC(=O)O)C(=O)O` [0.25% glutamic hydrochloride, L-glutamic hydrochloride] gave a Tumor inhibition rate of 13%.

Tested on: breast cancer 4T1 cells
Assay: Tumor weight and tumor inhibition in BALB/c mice bearing breast cancer 4T1 cells;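 note: subcutaneous grafts in the right axilla, tumors excised and weighed after euthanasia, inhibition rate derived from group mean tumor weight versus the negative control group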
Conditions: Table 10; avg tumor volume 336 mm^3; 150 μl/mouse every 3 days x3; 5th day after last dose
Experimental: In the following examples, unless otherwise specified, animal tests of subcutaneous transplantation tumors were performed in accordance with test guidelines issued by a drug administration authority. […] The subcutaneous transplantation was carried out according to a conventional method for subcutaneous inoculation of tumor cells. […] Items to be observed, measured and analyzed in the experiments included general status, body weight, food intake, tumor volume, tumor weight, thymus weight, spleen weight, and the like.
The tumor growth inhibition rate (abbreviated as tumor inhibition rate in the present invention) is calculated through the following equation:
wherein TW is an average tumor weight of a study group; CW is an average tumor weight of a negative control group.
The effects of the co-use of drugs (including efficacy and safety) can theoretically be based on the judgment of q:
q=actual combined effect/theoretical expected effect of simple addition.
When q=1, the actual combined effect meets the theoretical expectation, showing an additive effect; when q<1, the actual combined effect is weaker than the theoretical expectation, showing an antagonistic effect; and when q>1, the actual combined effect exceeds the theoretical expectation, showing a synergic effect. Unless otherwise specified, single-use efficacy of A or B (denoted as EA and EB respectively) and the actual combined efficacy of A/B (denoted as EA+B) are both tumor inhibition rates.
In one experiment, the test animal was a BALB/c mouse, the modeling cells were breast cancer 4T1 cells, and the transplantation tumor was modeled at 1×10^6 cells/mouse under the skin of the animal's right axilla. […] The experimental groups were divided into 1 negative control group (group 0) and 13 study groups (groups 1-13). They were all injected intratumorally. […] Each group was administered once every 3 days for a total of 3 times, each time at an injection dose of 150 μl//mouse. During the administration, general state of the animals and the degree of necrosis of normal tissues around the tumor after the administration were observed. On the 5th day after the administration was ended, the animals were euthanized, and the tumor weight was measured after anatomy to the animals. The tumor inhibition rate was calculated from the negative control group of each administration mode.
In another experiment, the test animal was a BALB/c mouse, the modeling cells were breast cancer 4T1 cells, and the transplantation tumor was modeled at 1×10^6 cells/mouse under the skin of the animal's right axilla. […] Each group was administered by intratumoral injection once every 3 days for a total of 3 times, each time at an injection dose of 150 μl/mouse. On the 5th day after the administration was ended, the animals were euthanized, and the tumor weight was measured after anatomy to the animals. The tumor inhibition rate was calculated from the negative control group.
In another experiment, the test animal was BALB/c mice, the modeling cells were breast cancer 4T1 cells, and the transplantation tumor was modeled at 1×10^6 cells/mouse under the skin of the animal's right axilla. […] Each group was administered by intratumoral injection once every 3 days for a total of 3 times, each time at an injection dose of 150 μl/mouse. On the 5th day after the administration was ended, the animals were euthanized, and the tumor weight was measured after anatomy to the animals. The tumor inhibition rate was calculated from the negative control group.
In another experiment, the test animal was a BALB/c mouse, the modeling cells were breast cancer 4T1 cells, and the transplantation tumor under the skin of the animal's right axilla was modeled at 1×10^6 cells/mouse.
In the case of `NCC(=O)O` [20% glycine, Glycine], the “Intratumoral injection Tumor inhibition rate” value is reported as 18% and the “Intratumoral injection Tumor weight” value is reported as 1.05 ± 0.32 g. With `O=c1[nH]cc(F)c(=O)[nH]1` [1% 5-fluorouracil, 5-fluorouracil] the “Intratumoral injection Tumor inhibition rate” value was 51% and the “Intratumoral injection Tumor weight” value was 0.63 ± 0.21 g. For `CC(=O)O` [10% acetic acid, acetic acid], the “Intratumoral injection Tumor inhibition rate” value was 53% and the “Intratumoral injection Tumor weight” value was 0.60 ± 0.21 g.

Same assay, conditions: Table 12; avg tumor volume 317 mm^3; intratumoral 150 μl/mouse every 3 days x3; 5th day
In the case of `N=C(N)NCCC[C@H](N)C(=O)O` [10% arginine, L-arginine], the Tumor inhibition rate is reported as 19% and the “Tumor weight (x ± s)” value is reported as 1.91 g. For `[Na+].[OH-]` [0.5% NaOH, sodium hydroxide], the Tumor inhibition rate was 31% and the “Tumor weight (x ± s)” value was 1.54 g. In the case of `N=C(N)NCCC[C@H](N)C(=O)O` [4% arginine, L-arginine], the Tumor inhibition rate is reported as 2% and the “Tumor weight (x ± s)” value is reported as 2.31 g. With `[Na+].[OH-]` [7% NaOH, sodium hydroxide] the Tumor inhibition rate was 75% and the “Tumor weight (x ± s)” value was 0.59 g.

Same assay, conditions: Table 13; avg tumor volume 307 mm^3; intratumoral 150 μl/mouse every 3 days x3; 5th day
In the case of `O=C([O-])[O-].[Na+].[Na+]` [2.8% sodium carbonate, sodium carbonate], the Tumor inhibition rate is reported as 7% and the “Tumor weight (g) (x ± s)” value is reported as 2.10 ± 0.27 g.

Same assay, conditions: Table 14; avg tumor volume 325 mm^3; intratumoral 150 μl/mouse every 3 days x3; 5th day
For `[Cl-].[K+]` [2% KCl, potassium chloride], the Tumor inhibition rate was 11% and the “Tumor weight (x ± s)” value was 2.19 ± 0.31 g.

Same assay, conditions: Table 17; avg tumor volume 317 mm^3; intratumoral 150 μl/mouse every 3 days x3; fifth day
With `N=C(N)NCCC[C@H](N)C(=O)O` [10% arginine, L-arginine] the Tumor inhibition rate was 21% and the Tumor weight was 1.23 ± 0.31 g. Compound `N=C(N)NCCC[C@H](N)C(=O)O` [5% arginine, L-arginine] has a Tumor inhibition rate of 10% and a Tumor weight of 1.40 ± 0.26 g. `O=c1[nH]cc(F)c(=O)[nH]1` [1% 5-fluorouracil, 5-fluorouracil] showed a Tumor inhibition rate of 53% and a Tumor weight of 0.73 ± 0.21 g. With `N=C(N)NCCC[C@H](N)C(=O)O` [2.5% arginine, L-arginine] the Tumor inhibition rate was 5% and the Tumor weight was 1.48 ± 0.32 g.

Tested on: not listed separately
Assay: pH of the drug composition
Format: physicochemical
Conditions: Table 13; aqueous solution
In the case of `O=C([O-])[O-].[Na+].[Na+]` [2.8% sodium carbonate, sodium carbonate], the “Drug pH” value is reported as 10.9.
